In ChEMBL document CHEMBL1147885, “A novel noninvasive method for assessing glutathione-conjugate efflux systems in the brain” (Bioorg Med Chem, 2007):

Legend:
Format in all cases: ADME, organism-based
[1] = system: Brain; assay: Metabolic stability in intravenously dosed Wistar rat brain assessed as radioactivity remained in unchanged form after 15 mins by TLC; conditions: in vivo, iv, 0.25 h
[2] = system: Brain; assay: Metabolic stability in intravenously dosed Wistar rat brain assessed as metabolite level after 60 mins by HPLC; conditions: in vivo, iv, 1 h
[3] = system: Brain; assay: Metabolic stability in intravenously dosed Wistar rat brain assessed as metabolite level after 15 mins by HPLC; conditions: in vivo, iv, 0.25 h

Measured: Stability

[14CH3]n1cnc2ncnc(Cl)c21
80%: all assays above
